Results published in patent US20250041306A1, “TARGETED PROTEASE DEGRADATION (TED) PLATFORM” (EUBULUS BIOTHERAPEUTICS INC., priority 2021, published 2025).
Read-outs that look alike come from different tables or passages of the source.

What was measured:
Assay type in all cases: cell-based
[1] = system: Human Small Cell Lung Cancer NCI-H82; assay: Cell proliferation experiment (Alarm blue), H82
Protocol: (§1) The cells were cultured in conventional ways, and the cells should be passed for at least 2 generations before plating. Cells at the logarithmic growth phase were collected, prepared into single cell suspensions and counted. The concentration of cells was adjusted to desired concentration, and cells were inoculated into a 96-well cell culture plate at 100 μl per well. 100 μL of complete medium of the test compound were added to each well, 2 replicate wells for each concentration were set up, and diluted with a 5-fold gradient, and continued to culture for 72 h. All cells were subjected to EC50 test for corresponding samples.
(§2) The fluorescence intensity of each well was detected using the Alarm blue method, and IC50 was calculated.
(§3) IC50 was calculated according to the following formula:
(§4) [formula] • wherein Min, Max and Slope represent the minimum, maximum and slope respectively.

[2] = system: human gastric carcinoma cells N87; assay: Cell proliferation experiment (Alarm blue), N87
Protocol: as §1, §2, §3, §4

[3] = system: Human Colon Cancer cells Colo205; assay: Cell proliferation experiment (Alarm blue), Colo205
Protocol: as §1, §2, §3, §4

[4] = system: Human Small Cell Lung Cancer H69; assay: Cell proliferation experiment (Alarm blue), H69
Protocol: as §1, §2, §3, §4

[5] = system: Human Colon Cancer HT-29; assay: Cell proliferation experiment (Alarm blue), HT-29
Protocol: as §1, §2, §3, §4

[6] = H82 cells, 72 h culture, read-out: Anti cell proliferative activity EC50, H82
[7] = N87 cells, 72 h culture, read-out: Anti cell proliferative activity EC50, N87
[8] = Colo205 cells, 72 h culture, read-out: Anti cell proliferative activity EC50, Colo205
[9] = H69 cells, 72 h culture, read-out: Anti cell proliferative activity EC50, H69
[10] = HT-29 cells, 72 h culture, read-out: Anti cell proliferative activity EC50, HT-29
[11] = Homo sapiens, NCI-H82, 72 h, H82 cells, 72 h culture, read-out: Anti cell proliferative activity EC50, H82
[12] = Homo sapiens, 72 h, N87 cells, 72 h culture, read-out: Anti cell proliferative activity EC50, N87
[13] = Homo sapiens, COLO 205, 72 h, Colo205 cells, 72 h culture, read-out: Anti cell proliferative activity EC50, Colo205
[14] = Homo sapiens, NCI-H69, H69 cells, 72 h culture, read-out: Anti cell proliferative activity EC50, H69
[15] = Homo sapiens, HT-29 cells, 72 h culture, read-out: Anti cell proliferative activity EC50, HT-29

Row | Structure (SMILES) | EC50 [1, 6] [nM] | EC50 [2, 7] [nM] | EC50 [3, 8] [nM] | EC50 [4, 9] [nM] | EC50 [5, 10] [nM] | EC50 [1, 11] [nM] | EC50 [2, 12] [nM] | EC50 [3, 13] [nM] | EC50 [4, 14] [nM] | EC50 [5, 15] [nM] | further results
1 | CNC(=O)c1ccccc1Nc1nc(Nc2ccc(N3CCN(C(=O)N[C@H]4CC[C@@H](N(CCC#Cc5ccc6c(c5)CN(C5CCC(=O)NC5=O)C6=O)C(=O)OC(C)C(C)SSC[C@@H](NC(=O)CC[C@@H](NC(=O)c5ccc(NCc6cnc7nc(N)[nH]c(=O)c7n6)cc5)C(=O)O)C(=O)N[C@H](Cc5ccccc5)C(=O)N[C@H]5CSSC[C@@H](C(=O)N[C@H](CO)[C@@H](C)O)NC(=O)[C@H]([C@@H](C)O)NC(=O)[C@H](CCCCN)NC(=O)[C@@H](Cc6c[nH]c7ccccc67)NC(=O)[C@H](Cc6ccccc6)NC5=O)CC4)CC3)cc2)ncc1Cl (some centres unmarked) [UB-181267] | 168 | > 1000 | 519 | > 1000 | > 1000 | – | – | – | – | – | –
2 | CC[C@@H]1C(=O)N(C)c2cnc(Nc3ccc(-c4cn([C@H]5CC[C@@H](N(CCOCCC#Cc6cccc7c6CN(C6CCC(=O)NC6=O)C7=O)C(=O)OC(C)C(C)SSC[C@H](NC(=O)CC[C@H](NC(=O)c6ccc(NCc7cnc8nc(N)[nH]c(=O)c8n7)cc6)C(=O)O)C(=O)N[C@H](Cc6ccccc6)C(=O)N[C@H]6CSSC[C@@H](C(=O)N[C@H](CO)[C@@H](C)O)NC(=O)[C@H]([C@@H](C)O)NC(=O)[C@H](CCCCN)NC(=O)[C@@H](Cc7c[nH]c8ccccc78)NC(=O)[C@H](Cc7ccccc7)NC6=O)CC5)nn4)cc3OC)nc2N1C1CCCC1 (some centres unmarked) [UB-181268] | > 1000 | > 1000 | > 1000 | > 1000 | > 1000 | – | – | – | – | – | –
3 | CNC(=O)c1ccccc1Nc1nc(Nc2ccc(N3CCC(NCC#Cc4ccc5c(c4)CN(C4CCC(=O)NC4=O)C5=O)CC3)cc2)ncc1Cl (centres unmarked) [UB-181269] | – | – | – | – | – | 11.6 | 28.8 | 10.7 | > 1000 | 35.5 | –
4 | NC(=O)c1ccccc1Nc1nc(Nc2ccc(N3CCN(C(=O)N[C@H]4CC[C@@H](NC5CN(CC#Cc6ccc7c(c6)CN(C6CCC(=O)NC6=O)C7=O)C5)CC4)CC3)cc2)ncc1Cl (some centres unmarked) [UB-181270] | – | – | – | – | – | 147 | 258 | 218 | 454 | 951 | –
5 | CNC(=O)c1ccccc1Nc1nc(Nc2ccc(N3CCN(C(=O)CNCCC#Cc4ccc5c(c4)CN(C4CCC(=O)NC4=O)C5=O)CC3)cc2)ncc1Cl (centres unmarked) [UB-181272] | – | – | – | – | – | 19.1 | 23.1 | 21.1 | > 1000 | 332 | –
6 | NC(=O)c1ccccc1Nc1nc(Nc2ccc(N3CCN(C(=O)CNCCC#Cc4ccc5c(c4)CN(C4CCC(=O)NC4=O)C5=O)CC3)cc2)ncc1Cl (centres unmarked) [UB-181273] | – | – | – | – | – | 21.6 | > 1000 | 21.4 | 375 | 56.2 | –
7 | NC(=O)c1ccccc1Nc1nc(Nc2ccc(N3CCN(C(=O)NC4CCN(CCNCCC#Cc5ccc6c(c5)CN(C5CCC(=O)NC5=O)C6=O)CC4)CC3)cc2)ncc1Cl (centres unmarked) [UB-181274] | – | – | – | – | – | 27.7 | 18.2 | 49.4 | > 1000 | 522 | –
8 | CC(OC(=O)N(CCC#Cc1ccc2c(c1)CN(C1CCC(=O)NC1=O)C2=O)C1CCC(NC(=O)N2CCN(c3ccc(Nc4ncc(Cl)c(Nc5ccccc5C(N)=O)n4)cc3)CC2)CC1)C(C)SSC[C@H](N)C(=O)N[C@H](Cc1ccccc1)C(=O)N[C@H]1CSSC[C@@H](C(=O)N[C@H](CO)[C@@H](C)O)NC(=O)[C@H]([C@@H](C)O)NC(=O)[C@H](CCCCN)NC(=O)[C@@H](Cc2c[nH]c3ccccc23)NC(=O)[C@H](Cc2ccccc2)NC1=O (some centres unmarked) [UB-181275] | 740 | > 1000 | 442 | > 1000 | 968 | – | – | – | – | – | –
9 | NC(=O)c1ccccc1Nc1nc(Nc2ccc(C3CCN(C(=O)N[C@H]4C[C@@H](NCCC#Cc5ccc6c(c5)CN(C5CCC(=O)NC5=O)C6=O)C4)CC3)cc2)ncc1Cl (some centres unmarked) [UB-181279] | – | – | – | – | – | 24.9 | > 1000 | 65.2 | > 1000 | 415 | –
10 | CC(OC(=O)N(CCC#Cc1ccc2c(c1)CN(C1CCC(=O)NC1=O)C2=O)C1CCC(NC(=O)N2CCN(c3ccc(Nc4ncc(Cl)c(Nc5ccccc5C(N)=O)n4)cc3)CC2)CC1)C(C)SSC[C@H](NC(=O)CCOCCOCCOCCOCCOCCOCCOCCOCCNC(=O)CC[C@H](NC(=O)c1ccc(NCc2cnc3nc(N)[nH]c(=O)c3n2)cc1)C(=O)O)C(=O)N[C@H](Cc1ccccc1)C(=O)N[C@H]1CSSC[C@@H](C(=O)N[C@H](CO)[C@@H](C)O)NC(=O)[C@H]([C@@H](C)O)NC(=O)[C@H](CCCCN)CC(=O)[C@@H](Cc2c[nH]c3ccccc23)NC(=O)[C@H](Cc2ccccc2)NC1=O (some centres unmarked) [UB-181280] | 647 | > 1000 | 1.9 | > 1000 | > 1000 | – | – | – | – | – | –
11 | C[C@H](NC(=O)CCCCCN1C(=O)CC(SC[C@H](N)C(=O)N[C@@H](Cc2ccccc2)C(=O)N[C@H]2CSSC[C@@H](C(=O)N[C@H](CO)[C@@H](C)O)NC(=O)[C@H]([C@@H](C)O)NC(=O)[C@H](CCCCN)NC(=O)[C@@H](Cc3c[nH]c4ccccc34)NC(=O)[C@H](Cc3ccccc3)NC2=O)C1=O)C(=O)N[C@@H](C)C(=O)N[C@@H](CC(N)=O)C(=O)Nc1ccc(COC(=O)N(CCC#Cc2ccc3c(c2)CN(C2CCC(=O)NC2=O)C3=O)C2CCC(NC(=O)N3CCN(c4ccc(Nc5ncc(Cl)c(Nc6ccccc6C(N)=O)n5)cc4)CC3)CC2)cc1 (some centres unmarked) [UB-181285] | 125 | 50 | 62.1 | > 1000 | 528 | – | – | – | – | – | –
12 | CC(C)c1cc(-c2nnc(O)n2-c2ccc3c(ccn3CCC3CCN(C(=O)NCCOCCOCCOCCOCCOCCOCCOCCOCCC(=O)N[C@@H](CSC4CC(=O)N(CCCCCC(=O)N[C@@H](C)C(=O)N[C@@H](C)C(=O)N[C@@H](CC(N)=O)C(=O)Nc5ccc(COC(=O)N(CCC#Cc6ccc7c(c6)CN(C6CCC(=O)NC6=O)C7=O)C6CCC(NC(=O)N7CCN(c8ccc(Nc9ncc(Cl)c(Nc%10ncc(Cl)c(Nc%11ccccc%11C(N)=O)n%10)n9)cc8)CC7)CC6)cc5)C4=O)C(=O)N[C@H](Cc4ccccc4)C(=O)N[C@H]4CSSC[C@@H](C(=O)N[C@H](CO)[C@@H](C)O)NC(=O)[C@H]([C@@H](C)O)NC(=O)[C@H](CCCCN)NC(=O)[C@@H](Cc5c[nH]c6ccccc56)NC(=O)[C@H](Cc5ccccc5)NC4=O)CC3)c2)c(O)cc1O (some centres unmarked) [UB-181289] | 410 | 698 | 621 | > 1000 | > 1000 | – | – | – | – | – | –
13 | CC(C)c1cc(-c2nnc(O)n2-c2ccc3c(ccn3CCC3CCN(C(=O)CCSC4CC(=O)N(CCCCCC(=O)N[C@@H](C)C(=O)N[C@@H](C)C(=O)N[C@@H](CC(N)=O)C(=O)Nc5ccc(COC(=O)N(CCC#Cc6ccc7c(c6)CN(C6CCC(=O)NC6=O)C7=O)C6CCC(NC(=O)N7CCN(c8ccc(Nc9ncc(Cl)c(Nc%10ccccc%10C(N)=O)n9)cc8)CC7)CC6)cc5)C4=O)CC3)c2)c(O)cc1O.O=CO (some centres unmarked) [UB-181290] | – | – | – | – | – | – | – | – | – | – | Anti cell proliferative activity EC50, H82 ([1]; H82 cells, 72 h culture): insoluble; Anti cell proliferative activity EC50, N87 ([2]; N87 cells, 72 h culture): insoluble; Anti cell proliferative activity EC50, Colo205 ([3]; Colo205 cells, 72 h culture): insoluble; Anti cell proliferative activity EC50, H69 ([4]; H69 cells, 72 h culture): insoluble; Anti cell proliferative activity EC50, HT-29 ([5]; HT-29 cells, 72 h culture): insoluble
14 | CC(C)c1cc(-c2nnc(O)n2-c2ccc3c(ccn3CCC3CCN(C(=O)CCSSCCOC(=O)N(CCC#Cc4ccc5c(c4)CN(C4CCC(=O)NC4=O)C5=O)C4CCC(NC(=O)N5CCN(c6ccc(Nc7ncc(Cl)c(Nc8ccccc8C(N)=O)n7)cc6)CC5)CC4)CC3)c2)c(O)cc1O (centres unmarked) [UB-181294] | 245 | 818 | 301 | > 1000 | 865 | – | – | – | – | – | –
15 | CC(C)c1cc(-c2nnc(O)n2-c2ccc3c(ccn3CCC3CCN(C(=O)NCCOCCOCCOCCOCCOCCOCCOCCOCCC(=O)N[C@@H](CSSCCOC(=O)N(CCC#Cc4ccc5c(c4)CN(C4CCC(=O)NC4=O)C5=O)C4CCC(NC(=O)N5CCN(c6ccc(Nc7ncc(Cl)c(Nc8ccccc8C(N)=O)n7)cc6)CC5)CC4)C(=O)N[C@H](Cc4ccccc4)C(=O)N[C@H]4CSSC[C@@H](C(=O)N[C@H](CO)[C@@H](C)O)NC(=O)[C@H]([C@@H](C)O)NC(=O)[C@H](CCCCN)NC(=O)[C@@H](Cc5c[nH]c6ccccc56)NC(=O)[C@H](Cc5ccccc5)NC4=O)CC3)c2)c(O)cc1O (some centres unmarked) [UB-181297] | > 1000 | > 1000 | > 1000 | > 1000 | > 1000 | – | – | – | – | – | –
16 | CNC(=O)c1ccccc1Nc1nc(Nc2ccc(N3CCN(C(=O)NC4CCC(N(CCC#Cc5ccc6c(c5)CN(C5CCC(=O)NC5=O)C6=O)C(=O)OCc5ccc(NC(=O)[C@H](CC(N)=O)NC(=O)[C@H](C)NC(=O)[C@H](C)NC(=O)CCCCCN6C(=O)CC(SC[C@H](NC(=O)[C@H](CC(=O)O)NC(=O)[C@H](CC(=O)O)NC(=O)[C@H](CCCNC(=N)N)NC(=O)[C@H](CC(=O)O)NC(=O)CCC(NC(=O)c7ccc(NCc8cnc9nc(N)[nH]c(=O)c9n8)cc7)C(=O)O)C(=O)O)C6=O)cc5)CC4)CC3)cc2)ncc1Cl (some centres unmarked) [UB-181298] | – | – | – | – | – | – | – | – | – | – | EC50 ([1]; 72 h): 8.8 nM; EC50 ([2]; 72 h): 273 nM; EC50 ([3]; 72 h): 4.1 nM; EC50 ([4]; 72 h): > 1000 nM; EC50 ([5]; 72 h): > 1000 nM
